Data on two molecules can be found in patent US10098964B2, “Inclusion complexes and methods for making the same” (The Board of Trustees of the University of Illinois, priority 2015, dated 2018).

Data set [1] is described as follows: In-vitro fermentation (large intestine): butyrate produced. Format: in vitro ADME.
The conditions of data set [2]: cited from earlier work.

Consider `CCCC(=O)OCC(COC(=O)CCC)OC(=O)CCC` [Tributyrin, 1,3-di(butanoyloxy)propan-2-yl butanoate], for which the “Butyrate produced, 4 hr” value in data set [1] (fermentation 4 hr, representative of ascending large intestine) was 106389.69 µg/g (DMB). For the same molecule, the “Butyrate produced, 8 hr” value in data set [1] (fermentation 8 hr, representative of transverse large intestine) is 164605.74 µg/g (DMB). The “Butyrate produced, 12 hr” value in data set [1] (fermentation 12 hr, representative of descending large intestine) is 134093.05 µg/g (DMB).
In the case of `CCCC(=O)O` [butyrate, butyric acid], the “half-life in human plasma” value in data set [2] was below 6 min.
